{"source": "patent US20250312320A1", "about": "“METHOD AND TREATMENT FOR OSTEOARTHRITIS AND DISEASES OF CHONDROCYTE HYPERTROPHY” (The Royal Veterinary College, priority 2022, published 2025)", "key": {"[1]": {"test_system": "ATDC5 micromass", "assay": "ATDC5 micromass treated with CDK8i: qPCR gene expression and morphology", "assay_type": "cell-based, mouse", "conditions": "1 μM", "description": "ATDC5 and primary equine chondrocytes were cultured in micromasses and treated with a CDK8i to determine effects on gene expression during chondrogenic differentiation.\nIn more detail, for ATDC5 cells, 2.7×10^5 cells were seeded in a 10 μl droplet onto a 24-well plate and cultured in differentiation media supplemented with CDK8i for 7 days before switching to mineralisation media supplemented with CDK8i for a further 7 days to induce hypertrophic differentiation as previous. The CDK8i was either 1 μM BI1347 or 100 nM MSC2530818.\nOn days 7 and 14 DMSO control and BI1347/MSC2530818 treated ATDC5 micromasses were lysed in triplicate and RNA extracted using Reliaprep RNA miniprep system (Promega) before cDNA synthesis using High-capacity reverse transcriptase kit (Applied BioScience). Quantitative PCR (qPCR) analysis was carried out using 10 ng cDNA in iTaq mastermix (BioRad) according to manufacturer's instructions. Primer sequences for qPCR reactions are shown in Table 1. ΔCt values of genes expressed were normalised to reference housekeeper genes and subsequently used to generate relative expression. Significance was observed by conducting unpaired T-test with Welch correction."}, "[2]": {"test_system": "ihMSC (TERT immortalised human mesenchymal stromal cell line)", "assay": "ihMSC micromasses in chondrogenesis and IL1β OA disease degradation model", "assay_type": "cell-based", "conditions": "100 nM", "description": "(§1) Additional experiments were carried out on primary chondrocytes (equine, canine and human) and ihMSC (TERT immortalised human mesenchymal stromal cell line) to investigate whether CDK8i protects from IL-1β induced degradation when added throughout the entirety of differentiation/IL-1β treatment. Briefly, ihMSCs were seeded at a density of 5×10^4 cells per 10 μl micromass and differentiated in ihMSC chondrogenic media (1% FBS, 1% Ab/Am, 1× Insulin-Transferrin-Selenium premix, 10 μM Y-27632, 100 nM dexamethasone, 50 μg/ml ascorbic acid, 20 ng/ml TGF-β3 (Peprotech)). Primary chondrocytes were seeded at 2.7×10^5 cells per 10 μl micromass and differentiated in primary chondrocyte differentiation media. All micromasses were differentiated for 12 days in the presence of 100 nM […] or DMSO. Some micromasses were processed for gene expression analysis/alcian blue staining on day 12, whilst others were treated with IL-β media (1% FBS, 1% Ab/Am, 10 ng/ml IL-1B) and CDK8i for 48-hours before processing for alcian blue staining/gene expression analysis on day 14 as previously described."}, "[3]": {"test_system": "primary canine articular chondrocytes", "assay": "Primary canine articular chondrocytes in chondrogenesis and IL1β OA disease model: gene expression", "assay_type": "cell-based", "conditions": "100 nM", "description": "Articular cartilage was isolated, placed into a petri dish containing phosphate buffer saline (PBS) supplemented with 2% Ab/Am (PBS-Ab/Am) and transferred to a laminar flow hood for processing. Cartilage shavings were minced using a sterile scalpel to approximately 1 mm^3 and washed in fresh PBS-Ab/Am by centrifugation at 500×g for 10 minutes. Supernatant was removed and the cartilage pellet resuspended in 5 ml TrypLE™ (Gibco) before incubation at 37° C. for 10 minutes with gentle agitation. Dissociated cartilage fragments were pelleted and washed to remove excess TrypLE and resuspended in DMEM-complete media (DMEM/F12 (Gibco), 1% Ab/Am, 10% FBS) supplemented with 2 mg/ml Collagenase Type II and incubated overnight at 37° C. with gentle agitation. The cartilage digest was pelleted, washed and subsequently resuspended in DMEM-complete. Released cells were counted using a haematocytometer and seeded at 10,000 cells per cm^2. The cultures were incubated at 37° C., 5% CO2 in a humidified incubator for 2 days before refreshing DMEM-complete every 2 days until confluency. For differentiation experiments, primary chondrocytes were differentiated in DMEM/F12 containing 2% FBS, 1% Ab/Am, 1× Insulin-Transferrin-Selenium premix, 10 ng/ml TGFβ3 (primary chondrocyte differentiation media).\nas §1"}, "[4]": {"test_system": "STR/Ort mouse (spontaneous osteoarthritis)", "assay": "STR/Ort mouse pilot study: cartilage manifestations and gene expression markers", "assay_type": "in vivo", "conditions": "5 mg/kg oral gavage intermittently, 2 weeks", "description": "The STR/Ort mouse is a spontaneous mouse model of osteoarthritis which follows a similar trajectory as primary osteoarthritis disease development as humans and companion animals. […] An initial pilot study consisting of 2 male STR/Ort mice aged 18 weeks per group was carried out. Mice were dosed 5 mg/kg […] (N=2) or DMSO (N=2) in 60% PEG400 via oral gavage 3 times a week intermittently for 2 weeks. On day 14, mice were sacrificed, and articular cartilage was harvested from the knee joint using a micro rongeur. Tissue was homogenised in Qiazol using 2.4 mm beads in pre-chilled Tissue Lyser II racks (Qiagen) at 30 Hz for 5 minutes in total with intervals for samples to be chilled on ice every 60 seconds to prevent sample heating. Homogenised samples were directly processed for RNA extraction using the Direct-Zol microprep kit (Zymo) and RNA was processed for gene expression analysis via qPCR as previous."}, "[5]": {"test_system": "STR/Ort mouse (spontaneous osteoarthritis)", "assay": "STR/Ort mouse 12 week study: gait analysis", "assay_type": "in vivo", "conditions": "5 mg/kg intermittently", "description": "Following the pilot study, a larger in vivo study using the STR/Ort OA mouse model was conducted. Str/ORT male mice aged 22 weeks (post OA onset) were dosed with either DMSO (N=5) or MSC2530818 5 mg/kg (N=6) intermittently as above for 12 weeks.\nOn week 11 mice were placed on the DigiGate™ system (MouseSpecifics), a treadmill based video gait analysis software. For Gait analysis, each mouse was placed on the DigiGate™ and allowed to acclimatise for 5 minutes, the belt speed was then set to 13 cm/s for 10 seconds to capture videos of mice whilst walking. Videos were then cropped to 5 seconds of active walking and number of steps per hind limb was counted for each mouse."}}, "note": "Entries after “also recorded” stand apart in the source; their conditions may differ."}
{"smiles": "CN(C)C(=O)Cn1cc(-c2ccc(-c3cncc4ccccc34)cc2)cn1", "note": "[BI1347]", "values": [{"measurement": "micromass morphology", "setting": "[1]; 14 days, vs DMSO", "result": "visible increase in extracellular matrix production; also recorded: visibly larger, more rounded and resembled the appearance of healthy cartilage"}, {"measurement": "COL2A1 expression, increase vs DMSO", "setting": "[1]; day 7", "result": 4.7, "unit": "fold"}, {"measurement": "Mediator complex gene expression vs DMSO", "setting": "[1]; day 7", "result": "robustly downregulated; also recorded: overall reduction"}, {"measurement": "ACAN expression, increase vs DMSO", "setting": "[1]; day 7 (N.S)", "result": 6, "unit": "fold"}, {"measurement": "ACAN expression, increase vs DMSO", "setting": "[1]; day 14", "result": 6, "unit": "fold"}, {"measurement": "COL10A1 expression, decrease vs DMSO", "setting": "[1]; day 14", "result": 5.3, "unit": "fold"}]}
{"smiles": "Cc1n[nH]c2ncc(C(=O)N3CCC[C@H]3c3ccc(Cl)cc3)cc12", "note": "[MSC2530818]", "values": [{"measurement": "ADAMTS5 gene expression, reduction vs DMSO", "setting": "[2]", "result": 1.3, "unit": "fold"}, {"measurement": "ACAN gene expression, increase vs DMSO", "setting": "[2]; OA disease model (+IL1β)", "result": 1.6, "unit": "fold"}, {"measurement": "MATN3 gene expression, increase vs DMSO", "setting": "[2]; OA disease model (+IL1β)", "result": 3, "unit": "fold"}, {"measurement": "glycosaminoglycan (GAG; alcian blue stain) intensity vs DMSO", "setting": "[2]; both conditions (−IL1β and +IL1β)", "result": "increase"}, {"measurement": "ACAN gene expression, increase vs DMSO", "setting": "[2]; chondrogenic (−IL1β)", "result": 3, "unit": "fold"}, {"measurement": "MATN3 gene expression, increase vs DMSO", "setting": "[2]; chondrogenic (−IL1β)", "result": 4, "unit": "fold"}, {"measurement": "ACAN gene expression, increase vs DMSO", "setting": "[3]; OA disease model (+IL1β), N=1", "result": 3, "unit": "fold"}, {"measurement": "CNMD gene expression, increase vs DMSO", "setting": "[3]; OA disease model (+IL1β), N=1", "result": 6, "unit": "fold"}, {"measurement": "MATN3 gene expression, increase vs DMSO", "setting": "[3]; OA disease model (+IL1β), N=1", "result": 6, "unit": "fold"}, {"measurement": "SMOC2 gene expression, increase vs DMSO", "setting": "[3]; OA disease model (+IL1β), N=1", "result": 2, "unit": "fold"}, {"measurement": "COL2A1 gene expression, increase vs DMSO", "setting": "[3]; OA disease model (+IL1β), ns", "result": 13, "unit": "fold"}, {"measurement": "TIMP4 gene expression, increase vs DMSO", "setting": "[3]; OA disease model (+IL1β), ns", "result": 1.1, "unit": "fold"}, {"measurement": "ACAN gene expression, increase vs DMSO", "setting": "[3]; chondrogenic (−IL1β), N=1", "result": 2, "unit": "fold"}, {"measurement": "CNMD gene expression, increase vs DMSO", "setting": "[3]; chondrogenic (−IL1β), N=1", "result": 7, "unit": "fold"}, {"measurement": "COL2A1 gene expression, increase vs DMSO", "setting": "[3]; chondrogenic (−IL1β), N=1", "result": 5, "unit": "fold"}, {"measurement": "MATN3 gene expression, increase vs DMSO", "setting": "[3]; chondrogenic (−IL1β), N=1", "result": 2, "unit": "fold"}, {"measurement": "SMOC2 gene expression, increase vs DMSO", "setting": "[3]; chondrogenic (−IL1β), N=1", "result": 2, "unit": "fold"}, {"measurement": "TIMP4 gene expression, increase vs DMSO", "setting": "[3]; chondrogenic (−IL1β), N=1", "result": 4, "unit": "fold"}, {"measurement": "ADAMTS5 gene expression, reduction vs DMSO", "setting": "[3]; disease model (+IL1β), ns", "result": 1.4, "unit": "fold"}, {"measurement": "gene expression of cartilage anabolic biomarkers", "setting": "[4]; N=2, not powered for significance", "result": "increased; also recorded: increase in expression"}, {"measurement": "articular cartilage thickness (appearance post-dissection)", "setting": "[4]; N=2, vs DMSO", "result": "appears thicker"}, {"measurement": "infiltration of blood vessels in articular cartilage", "setting": "[4]; male aged 18 weeks, N=2, vs DMSO", "result": "absent; also recorded: not present"}, {"measurement": "gait symmetry (left/right step ratio)", "setting": "[5]; week 11", "result": "modified step symmetry; also recorded: closer to 1"}, {"measurement": "number of steps per second, rear left limb, increase vs DMSO", "setting": "[5]; week 11, MSC N=6, DMSO N=5", "result": 1.25, "unit": "fold"}, {"measurement": "number of steps per second, rear right limb, increase vs DMSO", "setting": "[5]; week 11, MSC N=6, DMSO N=5", "result": 1.5, "unit": "fold"}]}
